In US8470527B2, “Method of inhibiting HIV-1 replication by administering modified GP41 C34 peptide derivatives with enhanced pharmacological properties” (Frontier Biotechnologies, Co., Ltd., priority 2002, dated 2013):
Where two headings read alike, the source gives them in different places.

Assays:
HIV-1IIIB = assay: Cellular anti-HIV assay in fresh human PBMC cultures (reverse transcriptase activity and/or p24 readout); assay type: cell-based
Experimental: The four modified peptides FB006M, FB007M, FB010M, and FB010KM were conjugated to human serum albumin (HSA) by mixing prior to the antiviral test. The results appear in Table 8 below, where IC50 value is the 50% viral inhibition drug concentration, and TC50 value is the 50% cytotoxicity drug concentration.
Pretitered aliquots of HIV-1IIIB was removed from the freezer (−80° C.) and thawed rapidly to room temperature in a biological safety cabinet immediately before use.
Fresh human PBMCs were isolated from screened donors, seronegative for HIV and HBV (Interstate Blood Bank, Inc.; Memphis, Tenn.). Cells were pelleted/washed 2-3 times by low speed centrifugation and resuspension in PBS to remove contaminating platelets. The Leukophoresed blood was then diluted 1:1 with Dulbecco's phosphate buffered saline (PBS) and layered over 14 mL of Lymphocyte Separation Medium in a 50 mL centrifuge tube and then centrifuged for 30 minutes at 600×g. Banded PBMCs were gently aspirated from the resulting interface and subsequently washed 2× with PBS by low speed centrifugation. After the final wash, cells were enumerated by trypan blue exclusion and re-suspended at 1×10^7 cells/mL in RPMI 1640 supplemented with 15% Fetal Bovine Serum (FBS), 2 mM L-glutamine, 4 μg/mL Phytohemagglutinin (PHA-P, Sigma). The cells were allowed to incubate for 48-72 hours at 37° C. After incubation, PBMCs were centrifuged and resuspended in RPMI 1640 with 15% FBS, 2 mM L-glutamine, 100 U/mL penicillin, 100 μg/mL streptomycin, 10 μg/mL gentamycin, and 20 U/mL recombinant human IL-2 (R&D Systems, Inc). […]
For the standard PBMC assay, PHA-P stimulated cells from at least two normal donors were pooled, diluted in fresh medium to a final concentration of 1×10^6 cells/mL, and plated in the interior wells of a 96 well round bottom microplate at 50 μL/well (5×10^4 cells/well). […] Following removal of supernatant samples, compound cytotoxicity was measured by addition of MTS to the plates for determination of cell viability. […]

[1] = Cytotoxicity in PBMCs by MTS (secondary cytotoxicity assay, high-test concentration 25 μM); assay type: cell-based; settings: human PBMCs, MTS cell viability; modified peptides conjugated with HSA; FB005, FB006 unmodified; read-out: TC50 (50% cytotoxicity drug concentration)
Experimental: For the standard PBMC assay, PHA-P stimulated cells from at least two normal donors were pooled, diluted in fresh medium to a final concentration of 1×10^6 cells/mL, and plated in the interior wells of a 96 well round bottom microplate at 50 μL/well (5×10^4 cells/well). Each plate contains virus/cell control wells (cells plus virus), experimental wells (drug plus cells plus virus) and compound control wells ([…], necessary for MTS monitoring of cytotoxicity). Since HIV-1 is not cytopathic to PBMCs, this allows the use of the same assay plate for both antiviral activity and cytotoxicity measurements. Test drug dilutions were prepared at a 2× concentration in microtiter tubes and 100 μL of each concentration was placed in appropriate wells using the standard format. 50 μL of a predetermined dilution of virus stock was placed in each test well (final MOI≈0.1). The PBMC cultures were maintained for seven days following infection at 37° C., 5% CO2, after which cell-free supernatant samples were collected for analysis of reverse transcriptase activity and/or HIV p24 content. Following removal of supernatant samples, compound cytotoxicity was measured by addition of MTS to the plates for determination of cell viability. Wells were also examined microscopically and any abnormalities noted. […]

[2] = HIV-1IIIB in fresh human PBMCs, seven days, FB006M, FB007M, FB010M, FB010KM conjugated with HSA prior to test, FB005, FB006 unmodified peptide, read-out: IC50 (50% viral inhibition drug concentration)

Ac-SLEQIWNNMTWEEWDREINNYTELIHELIEESQNQQEKNEQELL-NH2 [FB005]
IC50 (HIV-1IIIB; [2]): 0.93 nM
CC50 at 7 days [1]: 14300 nM

Ac-WEEWDREINNYTKLIHELIEESQNQQEKNEQELL-NH2 [FB006]
IC50 (HIV-1IIIB; FB006M and FB007M linked to serum albumin, read-out: IC50 (drug concentration for achieving 50% viral inhibition)): 1.4 nM
IC50 (HIV-1IIIB; [2]): 1.41 nM
CC50 at 7 days [1]: 15900 nM
